Test results as given in paper PMC13494539 (Cell Reports Methods, 2026).

Target: CRL4^CRBN-pomalidomide-SALL4 ZF1-ZF2 (aa 378–453) ternary complex (Homo sapiens, UniProt Q96SW2+Q9UJQ4)
Settings: presence vs absence of pomalidomide

Sequence of CRL4^CRBN-pomalidomide-SALL4 ZF1-ZF2 (aa 378–453) ternary complex (Q9UJQ4 378-453 limits assumed): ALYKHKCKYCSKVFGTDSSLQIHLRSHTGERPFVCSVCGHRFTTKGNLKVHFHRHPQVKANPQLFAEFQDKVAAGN
Sequence of CRL4^CRBN-pomalidomide-SALL4 ZF1-ZF2 (aa 378–453) ternary complex (Q96SW2 whole entry, the tested form may be a part): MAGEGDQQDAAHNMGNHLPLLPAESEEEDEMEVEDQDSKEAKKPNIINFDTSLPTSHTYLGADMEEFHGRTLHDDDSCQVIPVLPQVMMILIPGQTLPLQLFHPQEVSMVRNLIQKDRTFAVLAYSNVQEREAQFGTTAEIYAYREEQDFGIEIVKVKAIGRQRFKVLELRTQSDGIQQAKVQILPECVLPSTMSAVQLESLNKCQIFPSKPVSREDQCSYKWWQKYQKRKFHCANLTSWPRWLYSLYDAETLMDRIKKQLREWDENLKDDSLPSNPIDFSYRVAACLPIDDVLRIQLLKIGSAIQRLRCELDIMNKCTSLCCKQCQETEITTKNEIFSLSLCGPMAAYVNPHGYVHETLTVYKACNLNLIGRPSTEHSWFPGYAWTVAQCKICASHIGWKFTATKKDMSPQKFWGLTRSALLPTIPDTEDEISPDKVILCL
Sequence of CRL4^CRBN-pomalidomide-SALL4 ZF1-ZF2 (aa 378–453) ternary complex (Q16531 whole entry partner, the tested form may be a part): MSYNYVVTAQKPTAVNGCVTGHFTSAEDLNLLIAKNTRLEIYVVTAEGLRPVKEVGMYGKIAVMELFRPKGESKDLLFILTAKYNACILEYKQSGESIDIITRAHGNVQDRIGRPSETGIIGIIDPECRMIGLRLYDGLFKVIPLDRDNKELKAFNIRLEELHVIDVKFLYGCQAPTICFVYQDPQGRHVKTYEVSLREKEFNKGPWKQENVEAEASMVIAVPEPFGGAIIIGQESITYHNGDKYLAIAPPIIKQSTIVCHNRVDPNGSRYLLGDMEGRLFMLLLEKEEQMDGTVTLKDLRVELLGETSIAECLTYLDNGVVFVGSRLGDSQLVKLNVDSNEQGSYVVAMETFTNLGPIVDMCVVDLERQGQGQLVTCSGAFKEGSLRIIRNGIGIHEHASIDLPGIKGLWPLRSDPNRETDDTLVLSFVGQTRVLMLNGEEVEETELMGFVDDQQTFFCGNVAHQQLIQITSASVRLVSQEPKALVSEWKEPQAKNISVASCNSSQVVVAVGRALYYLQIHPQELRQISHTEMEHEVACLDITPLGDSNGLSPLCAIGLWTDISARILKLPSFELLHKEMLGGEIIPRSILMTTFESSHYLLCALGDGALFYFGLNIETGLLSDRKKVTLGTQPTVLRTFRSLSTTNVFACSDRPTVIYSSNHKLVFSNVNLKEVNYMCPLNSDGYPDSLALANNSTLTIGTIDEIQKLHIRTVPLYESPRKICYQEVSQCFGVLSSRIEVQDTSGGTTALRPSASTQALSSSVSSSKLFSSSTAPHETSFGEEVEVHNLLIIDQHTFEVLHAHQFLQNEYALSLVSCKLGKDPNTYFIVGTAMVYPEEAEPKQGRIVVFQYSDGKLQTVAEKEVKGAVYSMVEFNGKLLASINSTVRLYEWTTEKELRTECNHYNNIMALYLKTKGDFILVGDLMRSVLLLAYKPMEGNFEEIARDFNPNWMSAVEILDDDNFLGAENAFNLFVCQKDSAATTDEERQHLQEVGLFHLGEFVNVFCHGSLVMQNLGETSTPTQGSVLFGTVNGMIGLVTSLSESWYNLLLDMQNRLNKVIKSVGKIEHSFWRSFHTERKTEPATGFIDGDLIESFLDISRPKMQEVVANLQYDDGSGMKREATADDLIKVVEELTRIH
Sequence of CRL4^CRBN-pomalidomide-SALL4 ZF1-ZF2 (aa 378–453) ternary complex (Q13619 whole entry partner, the tested form may be a part): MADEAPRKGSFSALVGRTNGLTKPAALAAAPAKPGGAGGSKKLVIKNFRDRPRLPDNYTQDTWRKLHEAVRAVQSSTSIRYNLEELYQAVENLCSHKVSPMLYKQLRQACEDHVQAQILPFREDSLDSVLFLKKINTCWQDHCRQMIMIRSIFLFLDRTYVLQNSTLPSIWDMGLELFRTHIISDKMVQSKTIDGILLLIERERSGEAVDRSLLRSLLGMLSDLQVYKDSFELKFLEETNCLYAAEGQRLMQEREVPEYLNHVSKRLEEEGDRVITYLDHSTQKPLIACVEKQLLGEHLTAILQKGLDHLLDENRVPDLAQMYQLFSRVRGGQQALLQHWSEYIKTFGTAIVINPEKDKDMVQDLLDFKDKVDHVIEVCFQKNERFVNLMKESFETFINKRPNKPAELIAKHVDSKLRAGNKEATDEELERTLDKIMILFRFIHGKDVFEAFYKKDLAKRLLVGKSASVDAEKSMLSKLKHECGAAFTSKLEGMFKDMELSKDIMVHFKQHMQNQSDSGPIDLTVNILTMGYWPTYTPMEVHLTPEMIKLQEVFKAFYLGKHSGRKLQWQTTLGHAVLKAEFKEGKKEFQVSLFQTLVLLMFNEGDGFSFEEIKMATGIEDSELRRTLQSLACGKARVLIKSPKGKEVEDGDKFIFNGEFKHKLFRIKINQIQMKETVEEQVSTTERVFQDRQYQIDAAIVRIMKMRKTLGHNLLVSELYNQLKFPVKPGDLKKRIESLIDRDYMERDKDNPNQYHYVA
Sequence of CRL4^CRBN-pomalidomide-SALL4 ZF1-ZF2 (aa 378–453) ternary complex (P62877 whole entry partner, the tested form may be a part): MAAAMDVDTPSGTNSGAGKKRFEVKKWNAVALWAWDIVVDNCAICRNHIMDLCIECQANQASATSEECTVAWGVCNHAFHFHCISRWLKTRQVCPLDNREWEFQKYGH
Sequence of CRL4^CRBN-pomalidomide-SALL4 ZF1-ZF2 (aa 378–453) ternary complex (Q15843 1-76 partner limits assumed): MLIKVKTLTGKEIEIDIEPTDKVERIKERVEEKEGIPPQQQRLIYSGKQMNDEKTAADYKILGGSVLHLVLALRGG

Compound: Nc1cccc2c1C(=O)N(C1CCC(=O)NC1=O)C2=O (stereo not shown) [Pomalidomide]
- enhancement of SALL4 recruitment by CRL4^CRBN in the presence of pomalidomide: more than 10 fold
